Measurements: patent publication US20260021196A1, “HOMOGENEOUS ANTIBODY-CONJUGATES WITH HIGH PAYLOAD LOADING” (SYNAFFIX B.V., priority 2023, published 2026)

Tests used:
Format in all cases: cell-based
NCI-N87 (HER2 3+) cells = experiment: In vitro cytotoxicity, resazurin cell viability (Examples 131-133); details: Homo sapiens, NCI-N87, 120 h; Table 8 / FIG. 22A, DAR8 ADCs and free payloads, 5 days incubation
Experimental: (§1) The cells were incubated for 5 days in a humidified atmosphere at 37° C. and 5% CO2. […] After approximately 4 hours in a humidified atmosphere at 37° C. and 5% CO2 the fluorescence was detected with a fluorescence plate reader (Infinite® M1000 Tecan) at 560 nm excitation and 590 nm emission. The relative fluorescent units (RFU) were normalized to cell viability percentage by setting wells without cells at 0% viability and wells with untreated cells at 100% viability (see FIGS. 22A-22C).
(§2) After approximately 4 hours in a humidified atmosphere at 37° C. and 5% CO2 the fluorescence was detected with a fluorescence plate reader (Infinite® M1000 Tecan) at 560 nm excitation and 590 nm emission. The relative fluorescent units (RFU) were normalized to cell viability percentage by setting wells without cells at 0% viability and wells with untreated cells at 100% viability (see FIGS. 23A-23B).
as §1, with “24A-24B).” for “22A-22C).”

MDA-MB-231 (HER2−) cells = experiment: In vitro cytotoxicity, negative control cell line (Examples 131-133); details: Homo sapiens, MDA-MB-231, 120 h, Table 8 / FIG. 22C, 5 days incubation, read-out: IC50 (MDA-MB231 cells)
Experimental: as §1, §2
as §1, with “24A-24B).” for “22A-22C).”

BT-474 cells = experiment: In vitro cytotoxicity (Example 131); details: Homo sapiens, Table 8 / FIG. 22B, DAR8 ADCs and free payloads
Experimental: as §1

What does the source list for `CO[C@@]12[C@H](COC(N)=O)C3=C(C(=O)C(C)=C(N)C3=O)N1C[C@@H]1N[C@@H]12` [Mitomycin (free payload), Mitomycin C]?
IC50 (NCI-N87 (HER2 3+) cells): 94 nM; IC50 (MDA-MB-231 (HER2−) cells): > 100 nM; IC50 (BT-474 cells): 905 nM
